Like-named read-outs stand apart in the source and are kept apart here.
How the values were obtained:
[1] = test system: panel of 24 kinases; assay: Kinase selectivity testing (percentage inhibition of 24 kinases at 1 μM); format: biochemical; details: proquinase; for % inhibiton at 1 uM AKT2: AKT2, 1 uM; for % inhibiton at 1 uM CHK1: CHK1, 1 uM; for % inhibiton at 1 uM CK1 Alpha 1: CK1 Alpha 1, 1 uM; for % inhibiton at 1 uM FGFR1: FGFR1, 1 uM; for % inhibiton at 1 uM JAK2: JAK2, 1 uM; for % inhibiton at 1 uM MEK1: MEK1, 1 uM; for % inhibiton at 1 uM PAK1: PAK1, 1 uM; for % inhibiton at 1 uM PDK1: PDK1, 1 uM; for % inhibiton at 1 uM RPS5 KA1: RPS5 KA1, 1 uM; for % inhibiton at 1 uM SGK1: SGK1, 1 uM
[2] = Metabolic stability assay; format: in vitro ADME; details: percentage metabolic stability in human liver microsomes
Experimental: The metabolic stability assay was performed in Wuxi. 1 μM, 15 min. The kinase selectivity testing was performed in ProQinase GmbH, Germany.

[3] = target: T1, PIM-3 (Homo sapiens, UniProt Q86V86); assay: PIM-3 biochemical assay (ADP Hunter); details: read-out: PIM3 IC50;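 note: kinase activity read out as the quantity of ADP generated by the enzyme reaction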
T1 construct: purchased Millipore 14-738

[4] = test system: tumor cell lines; assay: Combination assay (MTT in vitro cell proliferation, combination index); format: cell-based; details: for EC50: chemotherapeutic alone, read-out: Chemo EC50
[5] = target: T2, FLT3 (Homo sapiens, UniProt P36888); assay: FLT3 biochemical assay (ADP Hunter);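 note: FLT3 enzymatic activity quantified through the ADP produced by the kinase reaction, detected with an ADP Hunter readout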
T2 sequence (P36888 27-993): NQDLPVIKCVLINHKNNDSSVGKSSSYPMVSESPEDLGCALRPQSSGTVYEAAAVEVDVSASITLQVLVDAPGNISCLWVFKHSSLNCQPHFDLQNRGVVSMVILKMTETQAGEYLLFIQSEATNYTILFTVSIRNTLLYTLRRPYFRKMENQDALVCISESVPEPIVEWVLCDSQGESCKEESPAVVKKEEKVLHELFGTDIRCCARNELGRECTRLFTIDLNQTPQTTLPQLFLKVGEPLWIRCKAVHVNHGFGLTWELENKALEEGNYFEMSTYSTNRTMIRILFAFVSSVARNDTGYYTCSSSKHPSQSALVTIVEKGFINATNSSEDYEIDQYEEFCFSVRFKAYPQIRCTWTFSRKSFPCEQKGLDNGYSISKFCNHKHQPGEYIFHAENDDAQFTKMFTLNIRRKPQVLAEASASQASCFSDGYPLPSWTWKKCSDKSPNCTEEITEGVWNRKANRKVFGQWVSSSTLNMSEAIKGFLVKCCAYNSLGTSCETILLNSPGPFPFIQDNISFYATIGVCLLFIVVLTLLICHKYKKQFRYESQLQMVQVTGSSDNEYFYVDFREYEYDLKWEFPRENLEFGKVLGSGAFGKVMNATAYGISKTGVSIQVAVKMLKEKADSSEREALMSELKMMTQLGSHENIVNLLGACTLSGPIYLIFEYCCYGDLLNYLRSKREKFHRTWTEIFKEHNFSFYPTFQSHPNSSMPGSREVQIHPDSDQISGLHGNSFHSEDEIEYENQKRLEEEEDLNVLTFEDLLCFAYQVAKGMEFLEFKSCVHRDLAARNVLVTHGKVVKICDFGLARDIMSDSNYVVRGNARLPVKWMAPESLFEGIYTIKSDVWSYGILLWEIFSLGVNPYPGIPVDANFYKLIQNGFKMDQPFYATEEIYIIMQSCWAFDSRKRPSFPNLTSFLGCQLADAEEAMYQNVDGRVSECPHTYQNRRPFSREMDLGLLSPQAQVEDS

[6] = target: T3, PIM-1 (Homo sapiens, UniProt P11309); assay: PIM-1 biochemical assay (ADP Hunter); details: read-out: PIM1 IC50;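 note: recombinant human PIM-1 carrying a C-terminal His tag, kinase activity quantified via ADP formed as the direct enzymatic product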
T3 construct: histidine tag (C); made in house
T3 sequence (P11309 whole entry): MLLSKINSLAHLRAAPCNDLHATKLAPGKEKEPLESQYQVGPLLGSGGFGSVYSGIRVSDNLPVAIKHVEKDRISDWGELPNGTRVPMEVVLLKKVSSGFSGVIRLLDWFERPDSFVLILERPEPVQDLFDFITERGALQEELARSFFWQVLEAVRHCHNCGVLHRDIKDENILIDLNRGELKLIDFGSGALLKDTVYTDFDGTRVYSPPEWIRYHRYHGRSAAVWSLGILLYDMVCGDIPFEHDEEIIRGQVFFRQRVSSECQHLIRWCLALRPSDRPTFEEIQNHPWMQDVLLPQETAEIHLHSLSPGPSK

[7] = target: T4, PIM-2 (Homo sapiens, UniProt Q9P1W9); assay: PIM-2 biochemical assay (ADP Hunter); details: semi-quantitative class; read-out: PIM2 IC50;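 note: recombinant N-terminally His-tagged human enzyme, kinase activity quantified by detection of ADP formed as the direct reaction product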
T4 construct: histidine tag (N); made in house
T4 sequence (Q9P1W9 whole entry): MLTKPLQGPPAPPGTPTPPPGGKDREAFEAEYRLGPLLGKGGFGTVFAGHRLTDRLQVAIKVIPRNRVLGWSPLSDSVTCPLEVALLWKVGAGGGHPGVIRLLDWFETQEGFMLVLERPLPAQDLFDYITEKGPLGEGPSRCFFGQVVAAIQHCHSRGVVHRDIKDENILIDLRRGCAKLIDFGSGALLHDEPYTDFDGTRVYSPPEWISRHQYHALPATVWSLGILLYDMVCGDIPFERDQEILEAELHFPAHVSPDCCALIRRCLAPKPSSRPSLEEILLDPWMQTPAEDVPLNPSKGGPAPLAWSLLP

[8] = Jeko-1, combined with lapatinib
[9] = actual IC50 value in parentheses
[10] = SKMel19, combined with GDC-0879

Row | % inhibiton at 1 uM B_RAF V600E [1] [%] | % inhibiton at 1 uM CK1 Alpha 1 [1] [%] | % inhibiton at 1 uM DYRK 1A [1] [%] | % inhibiton at 1 uM EGF_R [1] [%] | % inhibiton at 1 uM FAK [1] [%] | % inhibiton at 1 uM FGFR1 [1] [%] | % inhibiton at 1 uM IGF1_R [1] [%] | % inhibiton at 1 uM IKK BETA [1] [%] | % inhibiton at 1 uM INS_R [1] [%] | % inhibiton at 1 uM JAK2 [1] [%] | % inhibiton at 1 uM KIT [1] [%] | % inhibiton at 1 uM MEK1 [1] [%] | % inhibiton at 1 uM MET [1] [%] | % inhibiton at 1 uM PDGFR Alpha [1] [%] | % inhibiton at 1 uM RPS5 KA1 [1] [%] | % inhibiton at 1 uM SGK1 [1] [%] | Stability in HLM [2] [%] | IC50 ([3]; semi-quantitative class) [nM] | IC50 ([5]; semi-quantitative class) [nM] | IC50 [7] [nM] | Structure (SMILES) | other results
1 |  |  |  |  |  |  |  |  |  |  |  |  |  |  |  |  |  | > 1000 | 100 to 1000 | > 1000 | CN1CCC(CNc2nc3c(cc2Cl)nnn3-c2cccc(OC(F)(F)F)c2)CC1 [2-55, [6-chloro-3-(3-trifluoromethoxy-phenyl)-3H-[1,2,3]triazolo[4,5-b]pyridin-5-yl]-(1-methyl-piperidin-4-ylmethyl)-amine] | Combination Index (CI) [4, 8]: 0.15; Synergy [4, 8]: +++ (0.1 < CI < 0.3 (+++)); Combination Index (CI) ([4]; MV4:11, combined with GDC-0941): 0.35; Synergy ([4]; MV4:11, combined with GDC-0941): ++ (0.3 < CI < 0.7 (++)); IC50 [6, 9]: 90 nM; IC50 ([6]; semi-quantitative class): < 100 nM
2 |  |  |  |  |  |  |  |  |  |  |  |  |  |  |  |  |  | < 100 | > 1000 | > 1000 | FC(F)(F)Oc1cccc(-n2nnc3ccc(NCC4CCN(Cc5ccncc5)CC4)nc32)c1 [2-25] | IC50 [3, 9]: 22 nM; Combination Index (CI) [4, 8]: 0.387; Synergy [4, 8]: ++ (0.3 < CI < 0.7 (++)); Combination Index (CI) ([4]; MV4:11, combined with GDC-0941): 0.311; Synergy ([4]; MV4:11, combined with GDC-0941): ++ (0.3 < CI < 0.7 (++)); Combination Index (CI) [4, 10]: 0.87; Synergy [4, 10]: + (0.7 < CI < 1.2 (+)); IC50 [6, 9]: 34 nM; IC50 ([6]; semi-quantitative class): < 100 nM
3 | 3 | 0 | 12 | 12 | 31 | 22 | 21 | 0 | 12 | 8 | 63 | 13 | 11 | 57 | 10 | 0 | 88.9 | < 100 | < 100 | 100 to 1000 | FC(F)(F)Oc1cccc(-n2nnc3ccc(N4CCCC5(CCCN5)CC4)nc32)c1 (centres unmarked) [2-65] | IC50 [3, 9]: 6 nM; % inhibiton at 1 uM AKT2 [1]: 0%; % inhibiton at 1 uM CDK8 CYCC [1]: 2%; % inhibiton at 1 uM CHK1 [1]: 7%; % inhibiton at 1 uM PAK1 [1]: 0%; % inhibiton at 1 uM PDK1 [1]: 0%; % inhibiton at 1 uM SRC [1]: 33%; IC50 [5, 9]: 28 nM; IC50 [6, 9]: 2 nM; IC50 ([6]; semi-quantitative class): < 100 nM

The next lines start with the compound.

Row | Structure (SMILES) | % inhibiton at 1 uM B_RAF V600E [1] [%] | % inhibiton at 1 uM CK1 Alpha 1 [1] [%] | % inhibiton at 1 uM DYRK 1A [1] [%] | % inhibiton at 1 uM EGF_R [1] [%] | % inhibiton at 1 uM FAK [1] [%] | % inhibiton at 1 uM FGFR1 [1] [%] | % inhibiton at 1 uM IGF1_R [1] [%] | % inhibiton at 1 uM IKK BETA [1] [%] | % inhibiton at 1 uM INS_R [1] [%] | % inhibiton at 1 uM JAK2 [1] [%] | % inhibiton at 1 uM KIT [1] [%] | % inhibiton at 1 uM MEK1 [1] [%] | % inhibiton at 1 uM MET [1] [%] | % inhibiton at 1 uM PDGFR Alpha [1] [%] | % inhibiton at 1 uM RPS5 KA1 [1] [%] | % inhibiton at 1 uM SGK1 [1] [%] | Stability in HLM [2] [%] | IC50 ([3]; semi-quantitative class) [nM] | IC50 ([5]; semi-quantitative class) [nM] | IC50 [7] [nM] | other results
4 | FC(F)(F)Oc1cccc(-n2nnc3ccc(NC4CC5(CCNCC5)C4)nc32)c1 [2-66] | 15 | 0 | 30 | 18 | 19 | 4 | 16 | 5 | 7 | 3 | 30 | 0 | 3 | 12 | 19 | 2 | 91.1 |  |  |  | % inhibiton at 1 uM AKT2 [1]: 0%; % inhibiton at 1 uM CDK8 CYCC [1]: 3%; % inhibiton at 1 uM CHK1 [1]: 13%; % inhibiton at 1 uM PAK1 [1]: 11%; % inhibiton at 1 uM PDK1 [1]: 4%; % inhibiton at 1 uM SRC [1]: 28%
5 | FC(F)(F)Oc1cccc(-n2nnc3ccc(N4CC5(CCNCC5)C4)nc32)c1 [2-49] |  |  |  |  |  |  |  |  |  |  |  |  |  |  |  |  |  | 100 to 1000 | > 1000 | 100 to 1000 | Synergy ([4]; NCIH23, combined with lapatinib): + (0.7 < CI < 1.2 (+))
6 | FC(F)(F)Oc1cccc(-n2nnc3ccc(NCC4CC5(CCNCC5)C4)nc32)c1 [2-67] | 11 | 0 | 18 | 13 | 27 | 0 | 25 | 0 | 5 | 0 | 58 | 0 | 2 | 49 | 11 | 7 | 92.15 |  |  |  | % inhibiton at 1 uM AKT2 [1]: 0%; % inhibiton at 1 uM CDK8 CYCC [1]: 0%; % inhibiton at 1 uM CHK1 [1]: 11%; % inhibiton at 1 uM PAK1 [1]: 3%; % inhibiton at 1 uM PDK1 [1]: 0%; % inhibiton at 1 uM SRC [1]: 16%
7 | FC(F)(F)Oc1cccc(-n2nnc3ccc(NCC4CCNCC4)nc32)c1 [2-21] |  |  |  |  |  |  |  |  |  |  |  |  |  |  |  |  | 97.95 |  |  |  | 
8 | OC1CCC(Nc2ccc3nnn(-c4cccc(OC(F)(F)F)c4)c3n2)CC1 (stereo in doubt) [2-47] | 6 | 2 | 3 | 9 | 6 | 0 | 8 | 4 | 7 | 15 | 2 | 0 | 0 | 0 | 0 | 3 | 43.6 |  |  |  | 
9 | CS(=O)(=O)N1CCN(Cc2cc3nc(-c4cccc5[nH]ncc45)nc(N4CCOCC4)c3s2)CC1 [GDC-0941, reference compound] |  |  |  |  |  |  |  |  |  |  |  |  |  |  |  |  |  |  |  |  | EC50 ([4]; Homo sapiens, A549, A549, lung adenocarcinoma): 6000 nM; EC50 ([4]; Homo sapiens, JeKo-1, Jeko-1, Mantle cell lymphoma): 1000 nM; EC50 ([4]; Homo sapiens, MV4-11, MV4:11, leukemia (AML)): 500 nM; EC50 ([4]; Homo sapiens, NCI-H1975, NCIH1975, non small cell lung carcinoma): 20000 nM; EC50 ([4]; Homo sapiens, SK-MEL19, SKMel19, melanoma): 500 nM; EC50 ([4]; PC3, prostate cancer): 10000 nM
